The values that follow come from ChEMBL document CHEMBL4354787, “Inhibitors of inosine 5'-monophosphate dehydrogenase as emerging new generation antimicrobial agents” (Medchemcomm, 2019).

Assay [1] is described as follows: Inhibition of Mycobacterium tuberculosis IMPDH2.
For assay [2], the target named is Inosine-5'-monophosphate dehydrogenase 2 (Homo sapiens) (UniProt P12268). The assay is described as follows: Inhibition of human IMPDH2 relative to control. As to conditions: concentration not given here.
Assay [3] is described as follows: Inhibition of Francisella tularensis IMPDH expressed in Escherichia coli BL21(DE3) deletion in guaB gene using IMP as substrate preincubated for 10 mins followed by substrate addition in presence of NAD by spectrophotometer.
The target in assay [4] is Inosine-5'-monophosphate dehydrogenase (Mycobacterium tuberculosis (strain ATCC 25618 / H37Rv)) (UniProt P9WKI7). As to the kind of experiment: Inhibition of Mycobacterium tuberculosis H37Rv IMPDH2 at 1 uM using IMP as substrate incubated for 20 mins in presence of NAD by UV spectrophotometric analysis relative to control.
A short description of assay [5]: Inhibition of Helicobacter pylori IMPDH using IMP as substrate preincubated for 10 mins followed by addition of substrate and measured after 45 mins in presence of NAD by fluorescence based assay.
Assay [6] in a line: Inhibition of Helicobacter pylori IMPDH.

Sequence of Inosine-5'-monophosphate dehydrogenase (Mycobacterium tuberculosis (strain ATCC 25618 / H37Rv)) (P9WKI7 whole entry): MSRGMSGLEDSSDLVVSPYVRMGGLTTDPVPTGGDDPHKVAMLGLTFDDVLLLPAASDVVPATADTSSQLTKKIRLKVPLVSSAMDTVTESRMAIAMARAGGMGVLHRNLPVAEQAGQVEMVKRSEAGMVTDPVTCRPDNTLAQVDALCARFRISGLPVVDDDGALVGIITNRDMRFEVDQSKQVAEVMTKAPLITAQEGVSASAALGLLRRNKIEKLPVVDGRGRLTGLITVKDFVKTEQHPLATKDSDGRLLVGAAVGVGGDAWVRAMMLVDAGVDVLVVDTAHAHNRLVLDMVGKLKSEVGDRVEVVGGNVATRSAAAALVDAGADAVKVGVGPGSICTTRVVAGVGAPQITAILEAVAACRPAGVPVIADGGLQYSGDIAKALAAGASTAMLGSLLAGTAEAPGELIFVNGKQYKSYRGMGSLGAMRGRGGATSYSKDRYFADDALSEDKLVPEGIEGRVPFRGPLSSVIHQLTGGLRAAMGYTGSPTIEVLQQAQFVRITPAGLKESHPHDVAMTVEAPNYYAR
Sequence of Inosine-5'-monophosphate dehydrogenase 2 (Homo sapiens) (P12268 2-514 limits assumed): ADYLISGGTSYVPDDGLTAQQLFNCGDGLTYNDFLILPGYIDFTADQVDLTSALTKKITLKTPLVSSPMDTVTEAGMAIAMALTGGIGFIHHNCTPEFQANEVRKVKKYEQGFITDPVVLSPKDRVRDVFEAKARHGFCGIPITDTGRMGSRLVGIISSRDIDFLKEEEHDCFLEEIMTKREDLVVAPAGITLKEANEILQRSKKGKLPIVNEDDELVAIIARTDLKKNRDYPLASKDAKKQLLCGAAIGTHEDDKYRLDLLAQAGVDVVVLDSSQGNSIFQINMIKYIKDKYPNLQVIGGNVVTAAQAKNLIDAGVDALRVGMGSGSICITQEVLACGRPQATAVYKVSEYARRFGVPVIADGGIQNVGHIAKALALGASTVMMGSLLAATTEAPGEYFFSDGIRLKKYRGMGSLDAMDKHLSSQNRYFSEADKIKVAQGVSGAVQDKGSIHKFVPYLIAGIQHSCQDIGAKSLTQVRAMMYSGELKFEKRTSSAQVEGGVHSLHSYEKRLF

In general, IC50 refers to the point on the concentration scale where inhibition reaches its midpoint. By inhibition is commonly meant how much of the control response was suppressed. Consider `O=C(Cc1ccc(F)c2ccccc12)Nc1ccc2c(c1)COC2=O`, for which the IC50 in assay [1] was found to be 3200 nM. This compound showed an inhibition in assay [2] of under 0.1%. A word on the Ki: it is a measure of affinity in units of concentration, obtained from inhibition or displacement. For the compound `C[C@H](Oc1cccc(Cl)c1Cl)C(=O)Nc1ccc2oc(-c3ccc(C(=O)O)cc3)nc2c1`, the inhibition constant (Ki) in assay [3] worked out at 15.5 nM. As to `Cc1ccc([N+](=O)[O-])cc1NC(=O)Nc1cccc(Cl)c1`, in assay [4], the inhibition is over 90%.

Consider `CC(C(=O)Nc1ccc2c(c1)COC2=O)c1ccc(C(=O)c2ccccc2)cc1` (stereo not drawn), for which inhibition in assay [1] was half-maximal at 6200 nM (IC50).

The compound `COc1c(C)c2c(c(O)c1C/C=C(\C)CCC(=O)O)C(=O)OC2` [MYCOPHENOLIC ACID] had an IC50 in assay [1] of 27200 nM. As to `C[C@H](Oc1cccc(Cl)c1Cl)C(=O)Nc1ccc2oc(-c3ccc(C(=O)NO)cc3)nc2c1`, the inhibitory constant (Ki) in assay [3] came out at 13 nM.

On to `COc1cccc(Cn2cc(COc3ccc(-c4nnc(C)o4)cc3)nn2)c1`, for which, in assay [5], the IC50 was determined as 4060 nM. For the compound `C[C@H](Oc1cccc(Cl)c1Cl)C(=O)Nc1ccc2oc(-c3ccncc3)nc2c1`, the Ki in assay [3] was 22 nM. For `C[C@H](Oc1cccc2ccccc12)C(=O)Nc1ccc2oc(-c3ccncc3)nc2c1`, in assay [3], the Ki came to 30 nM. Take `O=C(Nc1ccc(Cl)c(Cl)c1)Nc1ccc(Br)cc1F`: the inhibition in assay [4] was over 90%.

Compound `O=C(Cn1cc(C(=O)Nc2cccnc2)c2ccccc21)Nc1ccc(Br)cc1` showed an IC50 in assay [6] of 2200 nM. With `O=C(Nc1cccc([N+](=O)[O-])c1)Nc1ccc(Cl)c(C(F)(F)F)c1`, in assay [4], the inhibition was over 90%.
